Assays:
[1] = test system: tumoroids from colon cancer patients; test: Tumoroid growth inhibition measured as projected area by imaging (CyQUANT, IndiNet); format: cell-based, human; conditions: 50% inhibition of tumoroid growth (projected area), day 7, tumoroids from four control patients
Method: The tumoroids were prepared from patient samples as described above in Example 2 under “3D tumoroid preparation”. The tumoroids were added to drug screening arrays that we pre-loaded with varying concentrations of Oxaliplatin (3, 10, 30, 100, 300 uM), FOLFOX (0, 1, 0, 3, 1, 3, 10 30 uM. Equal concentrations of 5-Fluorouracil and Oxaliplatin) and SN38 (10, 30, 100, 300, 1000 nM). SN38 is the active components of Irinotecan. At day 6 to day 7 tumoroids were stained with CyQUANT (cell proliferation assay). Tumoroid growth was measured by taking brightfield images on day 0 and visualizing living cells using CyQUANT Cell proliferation assay (ThermoFisher) on day 7. All images were acquired using a Cytation 1 (BioTek) imaging system. For Control patients, tissue from resected tumor was used. This sampling method typically secures bigger amounts of tissue and mechanically as well as enzymatically digestion is performed.
Images from day 0 and day 7 were analysed using the Al image analysis algorithm IndiNet™, which quantifies the projected area (referred to as “area” in this example) of live cells in both brightfield (day 0) and fluorescence (day 7) images and calculates the relative growth inhibition. […]

[2] = test system: tumoroids from colon cancer patients; test: Tumoroid ATP content (CellTiter-Glo 3D cell viability assay); format: cell-based, human; conditions: 50% inhibition of total ATP content, day 7, tumoroids from four control patients
Method: The tumoroids were prepared from the same patient samples as described above under “drug sensitivity measured with imaging”. The tumoroids were added to drug screening arrays that we pre-loaded with varying concentrations of Oxaliplatin (3, 10, 30, 100, 300 uM), FOLFOX (0, 1, 0, 3, 1, 3, 10 30 uM. Equal concentrations of 5-Fluorouracil and Oxaliplatin) and SN38 (10, 30, 100, 300, 1000 nM). ATP content of cells in the tumoroids was measured day 0 and on day 7 using CellTiter-Glo 3D cell viability assay (Promega; Catalog number G9681). The homogenous CellTiter-Glo 3D assays generates a luminescent signal that is proportional to the amount of cellular ATP. The assay was conducted in accordance with the instructions from the manufacture (Promega) by allowing the drug screening arrays to equilibrate to room temperature (20-25° C.) and then adding an amount of the CellTiter-Glo 3D reagent to the drug screening arrays. The equal volume of media and reagent is mixed thoroughly for 5 min to induce cell lysis and release of cellular ATP content. The luminescence signal was monitored with the Cytation 1 (BioTek) imaging system operating in luminescence mode. The luminescence signal was quantified by direct comparison to an ATP dose-response curve created by replacing the drug screening media with ATP standards.

[3] = Folfox = equal concentrations of 5-Fluorouracil and Oxaliplatin

Row | SMILES | IC50 [1, 3] | IC50 [2, 3] | IC50 [1] | IC50 [2]
1 | O=C1[O][Pt]2([NH][C@@H]3CCCC[C@H]3[NH]2)[O]C1=O [Oxaliplatin, oxaliplatin] | 17.7 µM | 72.7 µM |  | 
2 | CCc1c2c(nc3ccc(O)cc13)-c1cc3c(c(=O)n1C2)COC(=O)[C@]3(O)CC [SN38] |  |  | 0.00164 µM | 0.0367 µM
